According to the NIST ThermoML archive (doi:10.1016/j.jct.2016.04.020):

Assay: mn = molality of the nth substance listed, in mol/kg
Settings: 101.3 kPa, Liquid, Vibrating tube method

O=C([O-])CC(O)(CC(=O)[O-])C(=O)[O-].[Li+].[Li+].[Li+] [trilithium citrate] + O
Settings	mass density [kg/m3]
278.15 K, m1 = 0.0128	1002
278.15 K, m1 = 0.0256	1003.88
278.15 K, m1 = 0.06	1008.52
278.15 K, m1 = 0.1021	1013.86
278.15 K, m1 = 0.1956	1026.51
278.15 K, m1 = 0.293	1038.92
278.15 K, m1 = 0.3876	1050.53
278.15 K, m1 = 0.4799	1061.45
278.15 K, m1 = 0.6695	1083.25
278.15 K, m1 = 0.7552	1092.43
278.15 K, m1 = 0.8394	1101.64
278.15 K, m1 = 0.9407	1112.23
278.15 K, m1 = 1.33	1149.11
278.15 K, m1 = 1.74	1185.46
283.15 K, m1 = 0.0128	1001.66
283.15 K, m1 = 0.0256	1003.48
283.15 K, m1 = 0.06	1008.09
283.15 K, m1 = 0.1021	1013.43
283.15 K, m1 = 0.1956	1025.89
283.15 K, m1 = 0.293	1038.19
283.15 K, m1 = 0.3876	1049.67
283.15 K, m1 = 0.4799	1060.48
283.15 K, m1 = 0.6695	1082.11
283.15 K, m1 = 0.7552	1091.22
283.15 K, m1 = 0.8394	1100.37
283.15 K, m1 = 0.9407	1110.89
283.15 K, m1 = 1.33	1147.56
283.15 K, m1 = 1.74	1183.73
288.15 K, m1 = 0.0128	1001.03
288.15 K, m1 = 0.0256	1002.83
288.15 K, m1 = 0.06	1007.41
288.15 K, m1 = 0.1021	1012.68
288.15 K, m1 = 0.1956	1025.03
288.15 K, m1 = 0.293	1037.23
288.15 K, m1 = 0.3876	1048.63
288.15 K, m1 = 0.4799	1059.37
288.15 K, m1 = 0.6695	1080.85
288.15 K, m1 = 0.7552	1089.92
288.15 K, m1 = 0.8394	1099.01
288.15 K, m1 = 0.9407	1109.48
288.15 K, m1 = 1.33	1145.98
288.15 K, m1 = 1.74	1182.04
293.15 K, m1 = 0.0128	1000.13
293.15 K, m1 = 0.0256	1001.93
293.15 K, m1 = 0.06	1006.4
293.15 K, m1 = 0.1021	1011.71
293.15 K, m1 = 0.1956	1023.97
293.15 K, m1 = 0.293	1036.06
293.15 K, m1 = 0.3876	1047.42
293.15 K, m1 = 0.4799	1058.1
293.15 K, m1 = 0.6695	1079.46
293.15 K, m1 = 0.7552	1088.49
293.15 K, m1 = 0.8394	1097.55
293.15 K, m1 = 0.9407	1107.97
293.15 K, m1 = 1.33	1144.34
293.15 K, m1 = 1.74	1180.29
298.15 K, m1 = 0.0128	998.94
298.15 K, m1 = 0.0256	1000.72
298.15 K, m1 = 0.06	1005.21
298.15 K, m1 = 0.1021	1010.53
298.15 K, m1 = 0.1956	1022.63
298.15 K, m1 = 0.293	1034.68
298.15 K, m1 = 0.3876	1045.95
298.15 K, m1 = 0.4799	1056.57
298.15 K, m1 = 0.6695	1077.86
298.15 K, m1 = 0.7552	1086.85
298.15 K, m1 = 0.8394	1095.87
298.15 K, m1 = 0.9407	1106.24
298.15 K, m1 = 1.33	1142.51
298.15 K, m1 = 1.74	1178.37
303.15 K, m1 = 0.0128	997.54
303.15 K, m1 = 0.0256	999.32
303.15 K, m1 = 0.06	1003.8
303.15 K, m1 = 0.1021	1008.95
303.15 K, m1 = 0.1956	1021.12
303.15 K, m1 = 0.293	1033.1
303.15 K, m1 = 0.3876	1044.36
303.15 K, m1 = 0.4799	1054.93
303.15 K, m1 = 0.6695	1076.13
303.15 K, m1 = 0.7552	1085.11
303.15 K, m1 = 0.8394	1094.1
303.15 K, m1 = 0.9407	1104.46
303.15 K, m1 = 1.33	1140.64
303.15 K, m1 = 1.74	1176.43
308.15 K, m1 = 0.0128	995.93
308.15 K, m1 = 0.0256	997.69
308.15 K, m1 = 0.06	1002.15
308.15 K, m1 = 0.1021	1007.28
308.15 K, m1 = 0.1956	1019.42
308.15 K, m1 = 0.293	1031.35
308.15 K, m1 = 0.3876	1042.52
308.15 K, m1 = 0.4799	1053.1
308.15 K, m1 = 0.6695	1074.26
308.15 K, m1 = 0.7552	1083.2
308.15 K, m1 = 0.8394	1092.17
308.15 K, m1 = 0.9407	1102.51
308.15 K, m1 = 1.33	1138.61
308.15 K, m1 = 1.74	1174.35
313.15 K, m1 = 0.0128	994.08
313.15 K, m1 = 0.0256	995.83
313.15 K, m1 = 0.06	1000.28
313.15 K, m1 = 0.1021	1005.41
313.15 K, m1 = 0.1956	1017.49
313.15 K, m1 = 0.293	1029.43
313.15 K, m1 = 0.3876	1040.59
313.15 K, m1 = 0.4799	1051.12
313.15 K, m1 = 0.6695	1072.2
313.15 K, m1 = 0.7552	1081.14
313.15 K, m1 = 0.8394	1090.09
313.15 K, m1 = 0.9407	1100.41
313.15 K, m1 = 1.33	1136.47
313.15 K, m1 = 1.74	1172.18
318.15 K, m1 = 0.0128	992.05
318.15 K, m1 = 0.0256	993.81
318.15 K, m1 = 0.06	998.26
318.15 K, m1 = 0.1021	1003.38
318.15 K, m1 = 0.1956	1015.42
318.15 K, m1 = 0.293	1027.35
318.15 K, m1 = 0.3876	1038.47
318.15 K, m1 = 0.4799	1048.98
318.15 K, m1 = 0.6695	1070.04
318.15 K, m1 = 0.7552	1078.96
318.15 K, m1 = 0.8394	1087.9
318.15 K, m1 = 0.9407	1098.21
318.15 K, m1 = 1.33	1134.23
318.15 K, m1 = 1.74	1169.9
323.15 K, m1 = 0.0128	989.86
323.15 K, m1 = 0.0256	991.58
323.15 K, m1 = 0.06	996.08
323.15 K, m1 = 0.1021	1001.19
323.15 K, m1 = 0.1956	1013.22
323.15 K, m1 = 0.293	1025.12
323.15 K, m1 = 0.3876	1036.24
323.15 K, m1 = 0.4799	1046.74
323.15 K, m1 = 0.6695	1067.78
323.15 K, m1 = 0.7552	1076.68
323.15 K, m1 = 0.8394	1085.62
323.15 K, m1 = 0.9407	1095.92
323.15 K, m1 = 1.33	1131.93
323.15 K, m1 = 1.74	1167.57
328.15 K, m1 = 0.0128	987.52
328.15 K, m1 = 0.0256	989.24
328.15 K, m1 = 0.06	993.72
328.15 K, m1 = 0.1021	998.82
328.15 K, m1 = 0.1956	1010.84
328.15 K, m1 = 0.293	1022.76
328.15 K, m1 = 0.3876	1033.86
328.15 K, m1 = 0.4799	1044.36
328.15 K, m1 = 0.6695	1065.38
328.15 K, m1 = 0.7552	1074.27
328.15 K, m1 = 0.8394	1083.21
328.15 K, m1 = 0.9407	1093.5
328.15 K, m1 = 1.33	1129.51
328.15 K, m1 = 1.74	1165.14
333.15 K, m1 = 0.0128	985.04
333.15 K, m1 = 0.0256	986.7
333.15 K, m1 = 0.06	991.24
333.15 K, m1 = 0.1021	996.31
333.15 K, m1 = 0.1956	1008.42
333.15 K, m1 = 0.293	1020.27
333.15 K, m1 = 0.3876	1031.35
333.15 K, m1 = 0.4799	1041.87
333.15 K, m1 = 0.6695	1062.87
333.15 K, m1 = 0.7552	1071.77
333.15 K, m1 = 0.8394	1080.69
333.15 K, m1 = 0.9407	1090.99
333.15 K, m1 = 1.33	1127.01
333.15 K, m1 = 1.74	1162.66
338.15 K, m1 = 0.0128	982.43
338.15 K, m1 = 0.0256	984.02
338.15 K, m1 = 0.06	988.59
338.15 K, m1 = 0.1021	993.66
338.15 K, m1 = 0.1956	1005.8
338.15 K, m1 = 0.293	1017.67
338.15 K, m1 = 0.3876	1028.73
338.15 K, m1 = 0.4799	1039.22
338.15 K, m1 = 0.6695	1060.25
338.15 K, m1 = 0.7552	1069.15
338.15 K, m1 = 0.8394	1078.19
338.15 K, m1 = 0.9407	1088.43
338.15 K, m1 = 1.33	1124.43
338.15 K, m1 = 1.74	1160.09
343.15 K, m1 = 0.0128	979.51
343.15 K, m1 = 0.0256	981.2
343.15 K, m1 = 0.06	985.85
343.15 K, m1 = 0.1021	990.99
343.15 K, m1 = 0.1956	1002.94
343.15 K, m1 = 0.293	1014.95
343.15 K, m1 = 0.3876	1026.06
343.15 K, m1 = 0.4799	1036.55
343.15 K, m1 = 0.6695	1057.62
343.15 K, m1 = 0.7552	1066.41
343.15 K, m1 = 0.8394	1075.46
343.15 K, m1 = 0.9407	1085.78
343.15 K, m1 = 1.33	1121.83
343.15 K, m1 = 1.74	1157.54
